pIC50: −log10 of the molar value. Active and inactive are the calls of the source. The rule behind the calls is not given here.
Legend:
in vitro [1] = conditions: CD-1, mouse, liver microsomes
in vitro [2] = conditions: CD-1, mouse, liver microsomes; remark: listed apart in the source
Description: Metabolic stability in CD-1 mouse liver microsomes assessed as parent compound remaining at 100 uM measured after 60 mins in presence of NADPH by LC-MS/MS analysis

in vitro [3] = conditions: CD-1, mouse, liver microsomes; remark: listed apart in the source
Description: Metabolic stability in CD-1 mouse liver microsomes assessed as parent compound remaining at 100 uM measured after 60 mins by LC-MS/MS analysis

[4] = Antiproliferative activity against human BC assessed as lethality at 10 uM after 48 hrs by SRB assay relative to control; type: functional
MCF7 [5] = assay: Potency index, ratio of lapatinib IC50 to test compound IC50 for antiproliferative activity against human MCF7 cells; type: functional
BT-474 [6] = assay: Induction of apoptosis in human BT474 cells assessed as increase in early apoptotic cells at 0.5 to 5 uM incubated for 72 hrs by Annexin V-FITC/PI staining based flow cytometry analysis relative to control; type: functional; conditions: dose 0.5-5 µM
MDA-MB-231 [7] = assay: Antiproliferative activity against human MDA-MB-231 cells assessed as reduction in cell viability incubated for 72 hrs by WST8 assay; type: functional, cell-based; conditions: MDA-MB-231, 72 h
MCF7 [8] = assay: Induction of apoptosis in human MCF7 cells assessed as accumulation in early apoptotic cells at 5 uM incubated for 72 hrs by Annexin V-FITC/PI staining based flow cytometry analysis; type: functional, cell-based
MDA-MB-468 [9] = assay: Antiproliferative activity against human MDA-MB-468 cells assessed as cell growth inhibition after 48 hrs by SRB assay; type: functional
BT-474 [10] = assay: Antitumor activity against human BT474 cells xenografted in athymic nude mouse assessed as appearance of tumor fibrosis at 50 mg/kg, po administered via oral gavage for 5 times in a week for 55 days measured post-last dose by H and E staining based immunohistochemical analysis; type: functional, organism-based; conditions: time 55.0 day
MDA-MB-468 [11] = assay: Antiproliferative activity against human MDA-MB-468 cells assessed as lethality at 10 uM after 48 hrs by SRB assay relative to control; type: functional
BT-474 [12] = assay: Antitumor activity against human BT474 cells xenografted in athymic nude mouse assessed as reduction in metastasis of cells at 50 mg/kg, po administered via oral gavage for 5 times per week for 55 days measured post-last dose; type: functional, organism-based; conditions: time 55.0 day
BT-474 [13] = assay: Antitumor activity against human BT474 cells xenografted in athymic nude mouse assessed as tumor weight at 50 mg/kg, po administered via oral gavage for 5 times in a week for 55 days measured post last dose (reference value: 2.046 g); type: functional; conditions: time 55 day
T47D = assay: Antiproliferative activity against human T47D cells assessed as cell growth inhibition after 48 hrs by SRB assay; type: functional; conditions: pooled result: one value given for 5 cell lines, strains, targets or settings
MCF7 [14] = assay: Antiproliferative activity against human MCF7 cells assessed as lethality at 10 uM after 48 hrs by SRB assay relative to control; type: functional
in vitro [15] = conditions: CD-1, mouse, liver microsomes; remark: listed apart in the source
BT-474 [16] = assay: Antitumor activity against human BT474 cells xenografted in athymic nude mouse assessed as tumor growth inhibition at 50 mg/kg, po administered via oral gavage for 5 times in a week for 55 days measured post last dose; type: functional, organism-based; conditions: time 55.0 day
[17] = tested on: Panel NCI-60 (60 carcinoma cell lines); assay: Antiproliferative activity against human NCI60 cells assessed as lethality at 10 uM after 48 hrs by SRB assay relative to control; type: functional
BT-474 [18] = assay: Induction of apoptosis in human BT474 cells assessed as increase in late apoptotic cells at 0.5 to 5 uM incubated for 72 hrs by Annexin V-FITC/PI staining based flow cytometry analysis relative to control; type: functional; conditions: dose 0.5-5 µM
BT-474 [19] = assay: Antitumor activity against human BT474 cells xenografted in athymic nude mouse assessed as suppression of tumor growth by measuring decrease in number of Ki67 positive cells at 50 mg/kg, po administered via oral gavage for 5 times per week for 55 days measured post-last dose by Ki67-staining based immunohistochemistry; type: functional, organism-based; conditions: time 55.0 day
[20] = molecular target: T1, Receptor tyrosine-protein kinase erbB-2 (Homo sapiens, UniProt P04626); assay: Inhibition of HER2 (unknown origin) in presence of substrate incubated for 30 mins by ADP-Glo assay
T1 sequence (P04626 whole entry): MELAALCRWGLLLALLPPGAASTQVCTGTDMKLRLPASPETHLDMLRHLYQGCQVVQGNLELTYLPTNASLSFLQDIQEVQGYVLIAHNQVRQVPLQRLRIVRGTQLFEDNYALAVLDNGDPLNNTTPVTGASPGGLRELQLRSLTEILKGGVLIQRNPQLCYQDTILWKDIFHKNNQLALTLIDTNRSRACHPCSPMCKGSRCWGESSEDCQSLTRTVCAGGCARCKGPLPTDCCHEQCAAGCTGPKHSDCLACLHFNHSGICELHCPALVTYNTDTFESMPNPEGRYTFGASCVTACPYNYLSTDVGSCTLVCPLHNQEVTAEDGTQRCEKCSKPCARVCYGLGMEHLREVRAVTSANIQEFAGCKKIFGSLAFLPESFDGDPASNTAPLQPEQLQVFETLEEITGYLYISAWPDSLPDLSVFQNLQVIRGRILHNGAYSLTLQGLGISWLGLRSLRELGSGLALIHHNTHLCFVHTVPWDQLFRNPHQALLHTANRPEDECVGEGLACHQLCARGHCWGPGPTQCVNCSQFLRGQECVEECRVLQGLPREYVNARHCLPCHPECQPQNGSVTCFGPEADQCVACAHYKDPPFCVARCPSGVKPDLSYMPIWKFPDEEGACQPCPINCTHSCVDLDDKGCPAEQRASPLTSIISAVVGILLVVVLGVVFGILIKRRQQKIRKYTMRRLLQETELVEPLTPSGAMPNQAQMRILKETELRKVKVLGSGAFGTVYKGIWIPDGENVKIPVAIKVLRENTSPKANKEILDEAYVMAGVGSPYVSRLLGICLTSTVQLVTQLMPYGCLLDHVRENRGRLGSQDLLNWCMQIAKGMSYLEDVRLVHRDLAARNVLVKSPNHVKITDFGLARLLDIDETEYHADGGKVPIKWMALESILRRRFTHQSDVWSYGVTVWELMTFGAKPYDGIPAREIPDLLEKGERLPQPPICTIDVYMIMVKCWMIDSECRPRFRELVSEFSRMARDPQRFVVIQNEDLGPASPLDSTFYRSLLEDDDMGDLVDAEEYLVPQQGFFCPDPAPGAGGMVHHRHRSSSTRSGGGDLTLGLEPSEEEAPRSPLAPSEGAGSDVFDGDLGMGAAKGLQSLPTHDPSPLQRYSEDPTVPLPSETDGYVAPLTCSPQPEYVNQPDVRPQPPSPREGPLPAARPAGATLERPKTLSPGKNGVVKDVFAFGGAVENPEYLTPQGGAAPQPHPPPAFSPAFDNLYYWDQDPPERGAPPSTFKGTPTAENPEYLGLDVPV

BT-474 [21] = assay: Antiproliferative activity against human BT474 cells assessed as reduction in cell viability incubated for 72 hrs by WST8 assay; type: functional, cell-based; conditions: BT-474, 72 h
MDA-MB-231 [22] = assay: Induction of apoptosis in human MDA-MB-231 cells assessed as accumulation in early apoptotic cells at 5 uM incubated for 72 hrs by Annexin V-FITC/PI staining based flow cytometry analysis; type: functional, cell-based
AU565 [23] = assay: Down regulation of HER2 expression in human AU565 cells at 0.1 IC50 incubated for 24 hrs by western blot analysis; type: functional, cell-based
[24] = Antiproliferative activity against human BC assessed as cell growth inhibition at 10 uM after 48 hrs by SRB assay relative to control; type: functional; conditions: read-out: GI
MCF7 [25] = assay: Induction of apoptosis in human MCF7 cells assessed as accumulation in late apoptotic cells at 5 uM incubated for 72 hrs by Annexin V-FITC/PI staining based flow cytometry analysis; type: functional, cell-based
BT-474 [26] = assay: Antitumor activity against human BT474 cells xenografted in athymic nude mouse assessed as tumor necrosis at 50 mg/kg, po administered via oral gavage for 5 times in a week for 55 days measured post-last dose by H and E staining based immunohistochemical analysis; type: functional, organism-based; conditions: time 55.0 day
[27] = Antiproliferative activity against human MDA-MB-231 cells assessed as lethality at 10 uM after 48 hrs by SRB assay relative to control; type: functional, MDA-MB-23
AU565 [28] = assay: Antiproliferative activity against human AU565 cells assessed as reduction in cell viability incubated for 72 hrs by WST8 assay; type: functional, cell-based; conditions: AU565, 72 h
[29] = tested on: Panel NCI-60 (60 carcinoma cell lines); assay: Antiproliferative activity against human NCI60 cells assessed as mean cell growth at 10 uM after 48 hrs by SRB assay relative to control; type: functional
BT-474 [30] = assay: Induction of apoptosis in human BT474 cells assessed as increase in early apoptotic cells incubated for 72 hrs by Annexin V-FITC/PI staining based flow cytometry analysis; type: functional, cell-based; conditions: dose 0.1-5 µM
[31] = molecular target: T1, Receptor tyrosine-protein kinase erbB-2; assay: Inhibition of wild-type HER2 (unknown origin) at 0.5 nM in presence of substrate incubated for 30 mins by ADP-Glo assay relative to control
MDA-MB-468 [32] = assay: Antiproliferative activity against human MDA-MB-468 cells assessed as cell growth inhibition at 10 uM after 48 hrs by SRB assay relative to control; type: functional; conditions: read-out: GI
in vitro [33] = conditions: CD-1, mouse, microsomes
[34] = molecular target: T1, Receptor tyrosine-protein kinase erbB-2; assay: Inhibition of wild-type HER2 (unknown origin) at 100 nM in presence of substrate incubated for 30 mins by ADP-Glo assay relative to control
MDA-MB-231 [35] = assay: Induction of apoptosis in human MDA-MB-231 cells assessed as accumulation in late apoptotic cells at 5 uM incubated for 72 hrs by Annexin V-FITC/PI staining based flow cytometry analysis; type: functional, cell-based
BT-474 [36] = assay: Antitumor activity against human BT474 cells xenografted in athymic nude mouse assessed as inflammation in tumors at 50 mg/kg, po administered via oral gavage for 5 times per week for 55 days measured post-last dose by H and E staining based immunohistochemical analysis; type: functional, organism-based; conditions: time 55.0 day
MCF7 [37] = assay: Antiproliferative activity against human MCF7 cells assessed as reduction in cell viability incubated for 72 hrs by WST8 assay; type: functional, cell-based; conditions: MCF7, 72 h
AU565 [38] = assay: Down regulation of HER2 expression in human AU565 cells at 0.5 IC50 incubated for 72 hrs by Western blot analysis; type: functional, cell-based

SMILES | Activity [4] | fold change (FC) (BT-474 [6]) | pIC50 (MDA-MB-231 [7]) | Activity (MCF7 [8]) | GI50 (MDA-MB-468 [9]) [µM] | Activity (MDA-MB-468 [11]) [%] | GI50 (T47D) [µM] | Activity (MCF7 [14]) [%] | Activity [17] [%] | fold change (FC) (BT-474 [18]) | pIC50 [20] | pIC50 (BT-474 [21]) | Activity (MDA-MB-231 [22]) | inhibition of growth at 10 µM [24] [%] | Activity (MCF7 [25]) | Activity [27] [%] | pIC50 (AU565 [28]) | Activity [29] [%] | Activity (BT-474 [30]) | inhibition [31] [%] | also measured
CN1CCN(CCCOc2ccc3ncnc(Nc4ccc(OCc5cccc(F)c5)c(Cl)c4)c3c2)CC1 | <=78.7% | <=6 | 6.13 | inactive | 0.4 | 11.7 | 1.37 | 11.7 | 1.3 | <=3 | 8.08 | 7.08 | inactive | ≤ 78.7 | inactive | 11.7 | 7.00 | 11.85 | Dose-dependent effect | 3 | CLint scaled at 1 h, 100 µM (in vitro [1]): 95.7 mL/min/kg; remaining at 1 h, 100 µM (in vitro [2]): 46.4%; remaining at 1 h, 100 µM (in vitro [3]): 93.5%; Ratio IC50 (MCF7 [5]): <=20; Activity (BT-474 [10]): Active; Activity (BT-474 [12]): Active; Activity (BT-474 [13]): 1.223 g; half-life at 1 h, 100 µM (in vitro [15]): 57.4 min; TGI (BT-474 [16]): Active; Activity (BT-474 [19]): Active; Activity (AU565 [23]): Active; Activity (BT-474 [26]): Active; inhibition of growth at 10 µM (MDA-MB-468 [32]): 18.8%; microsomal CLint at 1 h, 100 µM (in vitro [33]): 24.2 µL/min/mg; inhibition [34]: 91%; Activity (MDA-MB-231 [35]): inactive; Activity (BT-474 [36]): Active; pIC50 (MCF7 [37]): 5.71
Cc1cccc(Oc2ccc(Nc3ncnc4ccc(NC(=O)CN5CCN(C)CC5)cc34)cc2Cl)c1 | <=78.7% | <=6 | 5.35 | inactive | 0.4 | 18 | 1.21 | 18 | 1.3 | <=3 | 8.27 | 7.09 | inactive | ≤ 78.7 | inactive | 18 | 6.87 | 11.85 | Dose-dependent effect | 3 | Activity (AU565 [38]): inactive; inhibition of growth at 10 µM (MDA-MB-468 [32]): 18.8%; Activity (MDA-MB-231 [35]): inactive; pIC50 (MCF7 [37]): 5.58

— ChEMBL document CHEMBL4715878 (J Med Chem, 2020)
